In PMC11408123, “Deciphering the SAM- and metal-dependent mechanism of O-methyltransferases in cystargolide and belactosin biosynthesis: A structure–activity relationship study” (The Journal of Biological Chemistry, 2024):

How the values were obtained:
[1] = target: T1, CysG^ΔN16 (Kitasatospora cystarginea, UniProt A0A1W6R556, R22K); experiment: X-ray crystal structure; assay type: binding; details: methyl donor site
T1 construct: N-terminal truncation lacking the first 16 residues, His6-SUMO tag removed, E. coli BL21(DE3); electron density for residues 17-229

[2] = target: T2, CysG^ΔN16 (Kitasatospora cystarginea, UniProt A0A1W6R556); experiment: X-ray crystal structure, […] Å; assay type: binding; details: with Ca2+ bound at His122-His123-Asp191; methyl donor site
T2 construct: N-terminal truncation lacking the first 16 residues, His6-SUMO tag removed, E. coli BL21(DE3); electron density for residues 17-229

[3] = target: T3, BelI (Streptomyces sp., UniProt A0A1W6R583); experiment: HPLC-MS turnover assay, semi-quantitative; assay type: biochemical; details: 1 mM substrate, 1 mM SAM, 5 μM enzyme, 20 mM Ca2+, 50 mM Tris-HCl, 30 °C, 3 h
T3 construct: full length, codon-optimised gene, N-terminal His6-SUMO tag removed, E. coli BL21(DE3); electron density for residues 17-228

[4] = target: T2, CysG^ΔN16; experiment: HPLC-MS turnover assay, semi-quantitative; assay type: biochemical; details: 1 mM substrate, 1 mM SAM, 5 μM enzyme, 20 mM divalent metal ion, 50 mM Tris-HCl, 30 °C, 3 h
[5] = target: T4, CysG^fl (Kitasatospora cystarginea, UniProt A0A1W6R556); experiment: HPLC-MS turnover assay, semi-quantitative; assay type: biochemical; details: 1 mM substrate, 1 mM SAM, 5 μM enzyme, 20 mM Ca2+, 50 mM Tris-HCl, 30 °C, 3 h
T4 construct: full length, codon-optimised gene, N-terminal His6-SUMO tag removed, E. coli BL21(DE3)

Q: Which X-ray crystal structure [1] does the source give for `C[S+](CC[C@H](N)C(=O)O)C[C@H]1O[C@@H](n2cnc3c(N)ncnc32)[C@H](O)[C@@H]1O` (some centres unmarked) [SAM] here?
A: CysG^ΔN16-R22K variant (PDB ID: 9FCY) maintains SAM coordination

Q: `Nc1ncnc2c1ncn2[C@@H]1O[C@H](CSCC[C@H](N)C(=O)O)[C@@H](O)[C@H]1O` [SAH] was tested. Which “X-ray crystal structure, 1.5 Å” value [2] did it give?
A: crystal structures of CysG^ΔN16 in complex with S-adenosylhomocysteine (SAH)

Q: With `CCC(C)C(C(=O)O)C(O)C(=O)O` (centres unmarked) [3SBM] as the molecule, how does the “HPLC-MS turnover assay, semi-quantitative” value (“HPLC-MS turnover assay” below) [3] read?
A: The assay was started by the addition of 3IPM for CysG and 3SBM for BelI

Q: `CC(C)[C@H](C(=O)O)[C@@H](O)C(=O)O` [3IPM] was tested. Which “HPLC-MS turnover assay” value [4] did it give?
A: N-terminally truncated CysG^ΔN16 variant was active with metal ions available

Q: What about the “HPLC-MS turnover assay” value [5] of the same molecule?
A: The assay was started by the addition of 3IPM for CysG and 3SBM for BelI
